Counter-ions that a name gives are not always drawn. Like-named read-outs stand apart in the source and are kept apart here.
Columns and labels:
[1] = target: YAP-TEAD protein interaction (His-TEAD1 (209-426) protein, Bio-YAP peptide (60-100)) (Homo sapiens, UniProt P28347); assay: YAP-TEAD protein interaction HTRF experiment; format: binding; settings: His-TEAD1 (209-426) 10 nM, Bio-YAP peptide 50 nM, read-out: Activity of each compound in blocking YAP-TEAD protein interaction (grades of IC50 values)
Outline: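 His-TEAD1 (209-426) at 10 nM final was preincubated 20 min at RT with compounds (10-point 3-fold dilutions, duplicates, 1% DMSO), then Bio-YAP peptide, 10 min. Anti-His-Eu cryptate/streptavidin-XL665 added for 1 h at RT; HTRF read at ex 320 nm, Em665/Em620 ratio ×10000, IC50 from % inhibition.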

MSTO-211H cells = assay: Cell proliferation inhibition experiment (CellTiter-Glo); format: cell-based; settings: 96 hours, read-out: Inhibitory activity of each compound on the proliferation of MSTO-211H cells (grades of IC50 values)
Outline: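 MSTO-211H cells (1500/well, RPMI1640 + 10% FBS) were plated overnight at 37° C, 5% CO2, then exposed in duplicate to 9 three-fold compound dilutions (DMSO ≤0.5% final) for 96 hours. Viability was read as CellTiter-Glo luminescence after 10 min at room temperature. IC50 was derived from inhibition of the CTG signal.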

Chain of YAP-TEAD protein interaction (His-TEAD1 (209-426) protein, Bio-YAP peptide (60-100)) (P28347 209-426): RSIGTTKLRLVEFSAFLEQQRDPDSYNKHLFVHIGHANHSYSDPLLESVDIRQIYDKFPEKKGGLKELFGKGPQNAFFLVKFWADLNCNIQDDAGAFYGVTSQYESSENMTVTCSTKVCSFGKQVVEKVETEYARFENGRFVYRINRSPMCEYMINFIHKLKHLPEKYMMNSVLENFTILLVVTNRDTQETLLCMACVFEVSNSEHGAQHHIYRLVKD

Row | Compound | IC50 [1] | IC50 (MSTO-211H cells; Homo sapiens) | IC50 (MSTO-211H cells)
1 | NC(=O)c1cc2c(c(F)c1-c1c(Cl)c(F)cc3c1C[C@](c1ccccc1)([C@@H]1CCCN1)O3)Oc1cc(=O)n(C3CC3)nc1O2 (atropisomer, axis not shown) [Compound 129, (S)-8-((S)-5-Chloro-6-fluoro-2-phenyl-2-((S)-pyrrolidin-2-yl)-2,3-dihydrobenzofuran-4-yl)-2-cyclopropyl-9-fluoro-3-oxo-2,3-hydrobenzo[5,6][1,4]dioxo [2,3-c]pyridazine-7-carboxamide] | < 50 nM | 200 to 500 nM | 
2 | [2H]C([2H])([2H])n1ncc2c(c1=O)Oc1cc(C(N)=O)c(-c3c(Cl)c(F)cc4c3C[C@](c3ccccc3)([C@@H]3CCCN3)O4)c(F)c1O2 (atropisomer, axis not shown) [Compound 132, (S)-8-((S)-5-Chloro-6-fluoro-2-phenyl-2-((S)-pyrrolidin-2-yl)-2,3-dihydrobenzofuran-4-yl)-9-fluoro-3-(methyl-d3)-4-oxo-3,4-dihydrobenzo[5,6][1,4]dioxo[2,3-d]pyridazine-7-carboxamide] | < 50 nM | < 200 nM | 
3 | Cn1cc2c(n1)COc1c-2cc(C(N)=O)c(-c2c(Cl)c(F)cc3c2C[C@](c2ccccc2)([C@@H]2CC4(CC4)CN2)O3)c1F (atropisomer, axis not shown) [Compound 9, (S)-7-((S)-5-Chloro-6-fluoro-2-phenyl-2-((S)-5-azaspiro[2.4]heptan-6-yl)-2,3-dihydrobenzofuran-4-yl)-6-fluoro-2-methyl-2,4-dihydrochromeno[3,4-c]pyrazole-8-carboxamide hydrochloride] | < 50 nM | < 200 nM | 
4 | NC(=O)c1cc2cccnc2c(F)c1-c1c(Cl)c(F)cc2c1C[C@](c1ccccc1)([C@@H]1CCCN1)O2 (atropisomer, axis not shown) [Compound 4, (S)-7-((S)-5-Chloro-6-fluoro-2-phenyl-2-((S)-pyrrolidin-2-yl)-2,3-dihydrobenzofuran-4-yl)-8-fluoroquinoline-6-carboxamide] | < 50 nM | < 200 nM | 
5 | Cn1ccc2c(c1=O)Oc1c(cc(C(N)=O)c(-c3c(Cl)c(F)cc4c3C[C@](c3ccccc3)([C@@H]3CCCN3)O4)c1F)O2 (atropisomer, axis not shown) [Compound 135, (S)-8-((S)-5-Chloro-6-fluoro-2-phenyl-2-((S)-pyrrolidin-2-yl)-2,3-dihydrobenzofuran-4-yl)-9-fluoro-2-methyl-1-oxo-1,2-dihydrobenzo[5,6][1,4]dioxo[2,3-c]pyridine-7-carboxamide] | < 50 nM | < 200 nM | 
6 | (S)-8-((S)-5-Chloro-6-fluoro-2-phenyl-2-((S)-pyrrolidin-2-yl)-2,3-dihydrobenzofuran-4-yl)-9-fluoro-3-methyl-4-oxo-3,4-dihydrobenzo[5,6][1,4]dioxo[2,3-d]pyrimidine-7-carboxamide [Compound 127] | < 50 nM |  | 200 to 500 nM
7 | NC(=O)c1cc2c(c(F)c1-c1c(Cl)c(F)cc3c1C[C@](c1ccccc1)([C@@H]1CCCN1)O3)Oc1nn(C3CC3)c(=O)cc1O2 (atropisomer, axis not shown) [Compound 128, (S)-8-((S)-5-Chloro-6-fluoro-2-phenyl-2-((S)-pyrrolidin-2-yl)-2,3-dihydrobenzofuran-4-yl)-2-cyclopropyl-9-fluoro-3-oxo-2,3-hydrobenzo[5,6][1,4]dioxo [2,3-c]pyridazine-7-carboxamide] | < 50 nM | < 200 nM | 
8 | Cn1cc2c(n1)COc1c-2cc(C(N)=O)c(-c2c(Cl)c(F)cc3c2C[C@@](CN[C@H]2CC[C@H](C(N)=O)CC2)(c2ccccc2)O3)c1F (atropisomer, axis not shown) [Compound 79] | < 50 nM | 200 to 500 nM | 
9 | CNC(=O)c1cc2c(c(F)c1-c1c(Cl)c(F)cc3c1C[C@](c1ccccc1)([C@@H]1CCCN1)O3)OCc1nn(C)cc1-2 (atropisomer, axis not shown) [Compound 39, (S)-7-((S)-5-Chloro-6-fluoro-2-phenyl-2-((S)-pyrrolidin-2-yl)-2,3-dihydrobenzofuran-4-yl)-6-fluoro-N,2-dimethyl-2,4-dihydrochromeno[3,4-c]pyrazole-8-carboxamide] | < 50 nM | < 200 nM | 
10 | NC(=O)c1cc2c(c(F)c1-c1c(Cl)c(F)cc3c1C[C@](c1ccccc1)([C@@H]1CCCN1)O3)OCc1n[nH]cc1-2 (atropisomer, axis not shown) [Compound 46, (S)-7-((S)-5-Chloro-6-fluoro-2-phenyl-2-((S)-pyrrolidin-2-yl)-2,3-dihydrobenzofuran-4-yl)-6-fluoro-2,4-dihydrochromeno[3,4-c]pyrazole-8-carboxamide] | < 50 nM | < 200 nM | 
11 | [2H]C1([2H])CC[C@]([2H])([C@@]2(c3ccccc3)Cc3c(cc(F)c(Cl)c3-c3c(C(N)=O)cc4c(c3F)Oc3c(cnn(CC(F)(F)F)c3=O)O4)O2)N1 (atropisomer, axis not shown) [Compound 153, (S)-8-((S)-5-Chloro-6-fluoro-2-phenyl-2-((S)-pyrrolidin-2-yl-2,5,5-d3)-2,3-dihydrobenzofuran-4-yl)-9-fluoro-1-oxo-2-(2,2,2-trifluoroethyl)-1,2-dihydroxybenzo[5,6][1,4] dioxo [2,3-d]pyridazine-7-carboxamide] | < 50 nM | < 200 nM | 
12 | NC(=O)c1cc2c(c(F)c1-c1c(Cl)c(F)cc3c1C[C@](c1ccccc1)([C@@H]1CCCN1)O3)Oc1ncn(C3CC3)c(=O)c1O2 (atropisomer, axis not shown) [Compound 140] | < 50 nM | < 200 nM | 
13 | [2H]C1([2H])CC[C@]([2H])([C@@]2(c3ccccc3)Cc3c(cc(F)c(Cl)c3-c3c(C(N)=O)cc4c(c3F)Oc3c(cnn(CC(F)F)c3=O)O4)O2)N1 (atropisomer, axis not shown) [Compound 152, (S)-8-((S)-5-Chloro-6-fluoro-2-phenyl-2-((S)-pyrrolidin-2-yl-2,5,5-d3)-2,3-dihydrobenzofuran-4-yl)-2-(2,2-difluoroethyl)-9-fluoro-1-oxo-1,2-dihydrobenzo [5,6][1,4]dioxo [2,3-d]pyridazine-7-carboxamide] | < 50 nM | < 200 nM | 
14 | NC(=O)c1cc2c(c(F)c1-c1c(Cl)c(F)cc3c1C[C@](c1ccccc1)([C@@H]1CCCN1)O3)Oc1c(ncn(CCF)c1=O)O2 (atropisomer, axis not shown) [Compound 137, (S)-7-((S)-5-Chloro-6-fluoro-2-phenyl-2-((S)-pyrrolidin-2-yl)-2,3-dihydrobenzofuran-4-yl)-6-fluoro-3-(2-fluoroethyl)-4-oxo-3,4-dihydrobenzo[5,6][1,4]dioxo [2,3-d]pyrimidine-8-carboxamide] | < 50 nM | < 200 nM | 
15 | NC(=O)c1cc2c(c(F)c1-c1c(Cl)c(F)cc3c1C[C@](c1ccccc1)([C@@H]1CCCN1)O3)Oc1cnn(C3CC3)c(=O)c1O2 [Compound 112, (S)-8-((S)-5-Chloro-6-fluoro-2-phenyl-2-((S)-pyrrolidin-2-yl)-2,3-dihydrobenzofuran-4-yl)-3-cyclopropyl-9-fluoro-4-oxo-3,4-dihydrobenzo[5,6][1,4]dioxo[2,3-d]pyridazine-7-carboxamide] | < 50 nM |  | 200 to 500 nM
16 | [2H]C1([2H])CC[C@]([2H])([C@@]2(c3ccccc3)Cc3c(cc(F)c(Cl)c3-c3c(C(=O)NC)cc4c(c3F)Oc3c(cnn(CC(F)F)c3=O)O4)O2)N1 (atropisomer, axis not shown) [Compound 156, (S)-8-((S)-5-Chloro-6-fluoro-2-phenyl-2-((S)-pyrrolidin-2-yl-2,5,5-d3)-2,3-dihydrobenzofuran-4-yl)-2-(2,2-difluoroethyl)-9-fluoro-N-methyl-1-oxo-1,2-dihydrobenzo[5,6][1,4]dioxo [2,3-d]pyridazine-7-carboxamide] | < 50 nM | < 200 nM | 
17 | CNC(=O)c1cc2c(c(F)c1-c1c(Cl)c(F)cc3c1C[C@](c1ccccc1)([C@@H]1CCCN1)O3)Oc1cnn(C)c(=O)c1O2 (atropisomer, axis not shown) [Compound 125, (S)-8-((S)-5-Chloro-6-fluoro-2-phenyl-2-((S)-pyrrolidin-2-yl)-2,3-dihydrobenzofuran-4-yl)-9-fluoro-N,3-dimethyl-4-oxo-3,4-dihydroxybenzo[5,6][1,4]dioxo[2,3-d]pyridazine-7-carboxamide] | < 50 nM | < 200 nM | 
18 | NC(=O)c1cc2c(c(F)c1-c1c(Cl)c(F)cc3c1C[C@](c1ccccc1)([C@@H]1CCCN1)O3)OCc1nccnc1-2 (atropisomer, axis not shown) [Compound 6, (S)-8-((S)-5-Chloro-6-fluoro-2-phenyl-2-((S)-pyrrolidin-2-yl)-2,3-dihydrobenzofuran-4-yl)-7-fluoro-5H-chromeno[3,4-b]pyrazine-9-carboxamide] | < 50 nM | < 200 nM | 
19 | NC(=O)c1cc2c(c(F)c1-c1c(Cl)c(F)cc3c1C[C@](c1ccccc1)([C@@H]1CCCN1)O3)Oc1ccnnc1O2 [Compound 103, (S)-7-((S)-5-Chloro-6-fluoro-2-phenyl-2-((S)-pyrrolidin-2-yl)-2,3-dihydrobenzofuran-4-yl)-6-fluorobenzo[5,6][1,4]dioxo[2,3-c]pyridazine-8-carboxamide] | < 50 nM |  | 500 to 5000 nM
